Test results as given in article PMC5745756, “N,N-disubstituted azines attenuate LPS-mediated neuroinflammation in microglia and neuronal apoptosis via inhibiting MAPK signaling pathways” (BMC Neuroscience, 2017).

Key:
Assay type in all cases: cell-based, murine
[1] = tested on: BV2 cells; assay: β-amyloid induced BV2 cell cytotoxicity
From the text: Here, we have investigated whether the compound 3 has any direct protective effects on microglia and neurons against LPS and TNF-α induced direct toxicity. As the aim of this study is to check the effectiveness of compound 3 against neurodegenerative conditions, here we checked the effect of this compound to protect microglial cells against β-amyloid induced cytotoxicity as shown in Fig. 5a. […] LPS treatment was unable to induce cellular toxicity to N2a cells (Fig. 5b). […] Compound 3 mediated neuroprotection in N2a cells is due to the inhibition of proinflammatory cytokines produced by LPS activated microglia.
Fig. 5 Cytoprotection of compound 3 in β-amyloid induced BV2 cell and LPS and TNF-α induced N2a cell toxicity

[2] = tested on: BV-2 cells; assay: MTT cell viability of LPS-activated BV-2 cells; conditions: at 20 µM
Procedure: (§1) […] or MTT assay was performed as described by our previous publication with slight modification. In order to measure MTT and NO production, BV-2 cells were plated into a 96-well plate at a density of 4 × 10^4 cells/well. […] Then, nitrite (a soluble oxidation product of NO) was detected in the culture media by using the Griess reaction. The supernatant (50 µL) was collected and mixed with an equal volume of Griess reagent (1% sulfanilamide in phosphoric acid and 0.1% N-1-napthylethylenediamine dihydrochloride). The absorbance was measured at 570 nm by using a microplate reader. Sodium nitrite was used to create a standard curve from which the NO2 concentration was calculated. The cell viability was evaluated by spectrophotometrically measuring the reduction of yellow 3-[4,5-dimethylthiazol-2-yl]-2,5-diphenyltetrazolium bromide (MTT) to purple formazan crystals. MTT was dissolved in DMEM, added to the culture plate containing cells at a final concentration of 0.5 mg/mL, and incubated for 1 h. The medium containing the MTT solution was carefully removed, and 200 µL DMSO was added to each well. After solubilizing the stained cells to produce a formazan-colored solution, the optical density (OD) was measured on a microplate reader at 570 nm, and the results were expressed as a percentage of the LPS-treated group. The same plate was used for the NO and MTT assays. The cell supernatant was used for the NO assay, and the plated cells were used for the MTT assay.
(§2) The NO production and cell viability of LPS-activated BV-2 cells were measured after treatment with azine derivatives using Griess reagent and MTT assay, respectively.

[3] = MTT cell viability of LPS-activated BV-2 cells; conditions: mouse, LPS-activated BV-2 microglial cells; 20 µM compound; percentage of the LPS-only treatment group; mean ± standard deviation, three experiments
Procedure: as §1, §2

[4] = tested on: TNF-α; assay: ELISA of TNF-α in LPS-activated BV-2 culture medium; conditions: 10 and 20 µM, LPS 24 h
Procedure: To measure TNF-α, IL-6, and PGE2, BV-2 cells were seeded in a 24-well plate at a density of 3 × 10^5 cells/well. The cells were treated with LPS (100 ng/mL) in the presence or absence of compound 3 for 24 h, and the media was collected and centrifuged. IL-6, TNF-α, and PGE2 produced in microglial culture supernatants […] were measured by competitive enzyme immunoassay kits (R&D systems, Minneapolis, MN, USA) in accordance with the manufacturer’s protocol.
Fig. 2 Effect of compound 3 on LPS-induced iNOS and COX2 expression in BV-2 cells. BV-2 cells were pretreated with various concentrations (5, 10, and 20 µM) of compound 3 for 30 min and activated with 100 ng/mL LPS. After 6 h, the cells were collected for analysis of iNOS and COX-2 expression using western blot analysis (a–c). Similarly, LPS activation was made for 24 h as chronic BV2 activation and the iNOS and COX-2 expression was measured (d). α-Tubulin was used as the loading control. The densitometric analysis of bands was performed as described in the methods section. After 24 h, the culture medium was subsequently collected to measure the quantity of PGE2 (e), IL-6 (f), and TNF-α (g) using ELISA analysis. […]

[5] = tested on: COX-2; assay: Western blot of LPS-induced COX-2 expression in BV-2 cells
Procedure: BV-2 cells were seeded in a 6-well plate at a density of 6 × 10^5 cells/well and exposed to LPS (100 ng/mL) in the presence or absence of compound 3 for required time. After treatment, cells were collected and lysed in cell lysis buffer (50 mM Tris–HCl, pH 8.0, 0.1% SDS, 150 mM NaCl, 1% NP-40, 0.02% sodium azide, 0.5% sodium deoxycholate, 100 µg/mL PMSF, and […]) for 24 h at 4 °C. The protein content was measured using a Bradford assay. Equal amounts of protein (30 µg) were separated using SDS-PAGE and transferred to a nitrocellulose membrane. […]
Fig. 2 Effect of compound 3 on LPS-induced iNOS and COX2 expression in BV-2 cells. […] Similarly, LPS activation was made for 24 h as chronic BV2 activation and the iNOS and COX-2 expression was measured (d). α-Tubulin was used as the loading control. […] After 24 h, the culture medium was subsequently collected to measure the quantity of PGE2 (e), IL-6 (f), and TNF-α (g) using ELISA analysis. […]

[6] = tested on: NO production in LPS-activated BV-2 cells; assay: Nitrite (Griess) assay of NO production in LPS-activated BV-2 cells
Procedure: as §1, §2

SMILES: COc1cc(/C=C/C=N/N=C/C=C/c2ccc(O)c(OC)c2)ccc1O [Compound 3, 4,4′-(1E,1′E,3E,3′E)-3,3′-(hydrazine-1,2-diylidene)bis(prop-1-ene-1-yl-3-ylidene)bis(2-methoxyphenol)]
- Microglial cell death against β-amyloid [1]: significantly prevented
- Cytotoxicity to BV-2 cells [2]: without cytotoxicity
- viability at 24 h, 20 µM [3]: 101 ± 2.53%
- TNF-α secretion [4]: significant reduction
- Expression of COX-2 ([5]; 5, 10 and 20 µM, 30 min pretreatment, LPS 100 ng/mL 6 h): significantly reduced
- LPS induced COX-2 activation, chronic ([5]; 24 h chronic LPS activation): dramatically rescued
- LPS-induced NO production ([6]; LPS-activated BV-2 cells): strongly inhibited
- IC50 ([6]; Mus musculus, BV-2, 100 ng/mL LPS, 24 h, Griess reaction, read-out: IC50, concentration that caused 50% inhibition of NO production in LPS-activated BV-2 cells): 12.5 µM
